From US6818226B2, “Dermal penetration enhancers and drug delivery systems involving same” (ACRUX DDS Pty. Ltd., priority 1996, dated 2004)
Where two headings read alike, the source gives them in different places. Marks after values point to notes of the source that are not given here.

What was measured:
[1] = Flux of oestradiol, progesterone, norethisterone acetate, ibuprofen, flurbiprofen across shed snake skin, 5 microL/cm^2 (Example 11); assay type: in vitro ADME, Children's python; conditions: for Enhancement ratio: 24 h
Source text: (§1) Dermatol., 94; 235-240, 1990.
(§2) Degassing was repeated three times.
In order to further illustrate the present invention and the advantages thereof, the following specific examples are given, it being understood that same are intended only as illustrative and in nowise limitative. In the examples, the effectiveness of the dermal penetration enhancers are illustrated by measuring the skin penetration of physiologically active agents. Also, the skin penetration of the dermal penetration enhancers of this invention were compared with that of other penetration enhancers as well as formulations of bio-affecting agents with common adjuvants. The comparisons made generally consisted of measuring the relative penetration through shed snake skin of the various formulations. In the examples, the in vitro skin penetration studies were performed using the same in vitro diffusion cell apparatus as previously mentioned.
The two penetration enhancers given as examples are octyl dimethyl PABA and Azone. Both penetration enhancers were again at a concentration of 8% v/v within the formulations and control was without a penetration enhancer. A concentration of 2% w/v oestradiol was used in the formulation and detection wavelength was 212 nm and the mobile phase consisted of acetonitrile:water (40%:60%).

[2] = test system: full-thickness guinea pig skin in vivo; experiment: Melanin content of guinea pig skin in vivo after topical hydroquinone solution (Example 4); conditions: for Enhancement ratio (enhancer/control): melanin content
Procedure: Melanin content was measured by reflectance absorbance from the treated and untreated skin according to the methods outlined in the PhD thesis of Anderson, J. R., titled The Development of Techniques for Measuring the Bioavailability of Topical Depigmenting Agents (School of Pharmaceutics, Victorian College of Pharmacy Ltd., Parkville, Victoria, Australia, Dec., 1985).

[3] = Flux of oestradiol, progesterone, norethisterone acetate, ibuprofen, flurbiprofen across shed snake skin, 5 microL/cm^2 (Example 11); assay type: in vitro ADME; conditions: Children's python
[4] = hairless, mouse, 2 % v/v
[5] = Children's python, 24 h, 2 % v/v
[6] = assay type: physicochemical
Source text: Japanese patent JP 61-268631 to Showa Denko KK discloses dermal penetration enhancers suitable for use with water-soluble drugs. The dermal penetration enhancers disclosed include 1-5 carbon fatty acid esters of para-aminobenzoic acid but their chemical structures are quite distinct from the compounds used in the present invention, and the physicochemical properties of the 1-5 carbon fatty acid esters of para-aminobenzoic acid are markedly different to those of the present invention. For example the octanol-water partition coefficients for all the 1-5 carbon fatty acid esters of para-aminobenzoic acid are at least 200 fold lower than those of the present invention. Also the preferred dermal penetration enhancer disclosed in JP 61-268631 is the 2 carbon fatty acid ester of para-aminobenzoic acid (or Benzocaine) which has an octanol-water partition coefficient which is more than 8000 fold lower than those of the present invention. Unlike those of the present invention, the preferred dermal penetration enhancer disclosed in JP 61-268631 has significant pharmacological properties in that it is a local anaesthetic, which has also been reported to cause irritant and allergic skin reactions. […]

[7] = Hydroquinone penetration across full-thickness guinea pig skin in vitro from gel, Franz cells (Example 4)
Source text: Adult guinea pigs of either sex (weight range 500 g-750 g) were used. The hair on the back flank and back was removed with the aid of depilatory wax (Arielle™) under halothane anaesthesia. Seven days later, after the stratum corneum had completely regenerated, the guinea pigs were killed and the skin removed and placed on a chilled slab. […] For in vivo experiments the guinea pigs were housed in individual cages and the topical hydroquinone formulations were applied to the hair-free areas. Each guinea pig received the test or control formulation on the corresponding contralateral site, thus allowing each animal to act as its own control.
Radiolabelled hydroquinone (C14, Amersham) was added to each of the topical formulations. At specified time intervals 200 microL of receptor solution was withdrawn with a micro-pipette and replaced with 200 microL of fresh normal saline. The 200 microL samples were added to 800 microL of water which in turn was added to 10 mL of scintillation cocktail consisting of Toluene™ 1L, PPO 5g, POPOP 0.1 g and Triton X™ 500 mL. The scintillation counting was performed on a Packard Tricarb 460C instrument. Disintegrations per minute were determined by an external standard procedure and calculated by the data system of the instrument.

[8] = Ibuprofen penetration across full-thickness hairless mouse skin in vitro (Example 5); conditions: control, no enhancer; 2% w/v ibuprofen in 70% aqueous ethanol
[9] = Diffusion of indomethacin (Indospray) across snake skin after pretreatment with Octyl dimethyl PABA (Example 2); assay type: in vitro ADME; conditions: Children's python, 24 h
Procedure: as §1, §2
10 microL of increasing concentrations of Octyl dimethyl PABA in absolute ethanol were applied 30 mins prior to the application of the indomethacin formulation. The control experiment involved application of 10 microL of absolute ethanol alone 30 mins prior to the application of the indomethacin formulation. Samples were assayed according to the method described previously.

[10] = assay type: in vitro ADME, Children's python
Source text: as §1, §2
The control formulation contained no penetration enhancer. The detection wavelength was 242 nm and the mobile phase consisted of acetonitrile:water (35%:65%).

[11] = Ketoprofen flux from transdermal patch across snake skin (Example 9); assay type: in vitro ADME, Children's python; conditions: control transdermal patch without enhancer, over 24 h
Procedure: as §1, §2
The patches were prepared by dissolving 300 mg of ketoprofen, 400 mg of penetration enhancer, 300 mg of polyethylene glycol 400 and 800 mg of hydroxypropylcellulose in 20 mL of ethanol and stirring until viscous. This was then poured onto a clean glass plate and dried at 40 degrees Celsius for 1 h. The thickness of this film was approximately 1 mm. Circles of 0.8 cm^2 were then cut out of this matrix and stuck onto the middle of 2.0 cm^2 circles of OPSITE™ adhesive bandage. This patch was then stuck onto 2.0 cm^2 pieces of snake skin and placed in the diffusion cell. The ketoprofen content of each patch formulation was determined by HPLC in triplicate and found to be 6.99+/−0.30 mg/cm^2 and 6.76+/−0.24 mg/cm^2, for the control and octyl salicylate patches respectively (mean content+/−std error, […]).

[12] = Diffusion of ketoprofen across shed snake skin after pretreatment with enhancer (Example 1); conditions: control, no enhancer: 70% aqueous ethanol alone for 2 hours before 2% ketoprofen; 24 h
[13] = Diffusion of ketoprofen across snake skin, enhancer included in the formulation (Example 3); conditions: control, no enhancer; 2% w/v ketoprofen in 70% aqueous ethanol; 24 h
[14] = in vivo, Bartek et al. 1972; cited from earlier work
[15] = Testosterone penetration across dermatomed neonate porcine skin in vitro (Example 6); assay type: in vitro ADME; conditions: control, no enhancer; 12% w/v testosterone in absolute ethanol
Source text: as §2

[16] = Testosterone flux across shed snake skin, finite dose 5 microL/cm^2 (Example 10); conditions: control, no enhancer, 12% w/v testosterone in absolute ethanol
Procedure: as §1, §2
The volume of each formulation applied to the skin was 5 microL/cm^2. Each formulation contained 12% w/v testosterone in absolute ethanol. The dose was applied with a GC syringe.
Samples were assayed for testosterone by HPLC as shown before in Example 6.

[17] = Testosterone clearance after intravenous bolus in pigs (Example 13); assay type: in vivo, domestic weanling pig; conditions: pig, plasma, bolus dose of intravenous testosterone
[18] = Children's python, 24 h, 8 % v/v

## CCCCCCCCCCCCN1CCCCCC1=O [Azone, 1-dodecal-azacycloheptane-2-one]
[1]; Children's python, 8 % v/v
  Mean flux +/− std error of oestradiol: 0.40 +/− 0.05 microg/cm^2 · h
  Enhancement ratio: 5.4
[2]; HQ 2% w/v with enhancer 2% v/v, finite dose solution 5 microL/cm^2
  Melanin content: 39.5 ± 9.6 μg/cm^2
[2]; HQ 2% w/v with enhancer 2% v/v versus HQ 2% w/v control
  Enhancement ratio (enhancer/control): 0.93
[3]; 8 % v/v
  Mean flux +/− std error of flurbiprofen: 2.05 +/− 0.42 microg/cm^2 · h
  Mean flux +/− std error of ibuprofen: 13.53 +/− 1.38 microg/cm^2 · h
  Mean flux +/− std error of norethisterone acetate: 0.16 +/− 0.02 microg/cm^2 · h
[3]; 24 h, 8 % v/v
  Mean flux +/− std error of progesterone: 2.17 +/− 0.33 microg/cm^2 · h
[4]
  median amount of ibuprofen penetrated after 12 hours: 1036* μg/cm^2
  median amount of ibuprofen penetrated after 24 hours: 2684* μg/cm^2
[5]
  Enhancement ratio: 3.6

## CCOC(=O)c1ccc(N)cc1 [Benzocaine, 2 carbon fatty acid ester of para-aminobenzoic acid]
[6]
  octanol-water partition coefficient, fold lower than those of the present invention: more than 8000 fold

## CC(C(=O)O)c1ccc(-c2ccccc2)c(F)c1 (centres unmarked) [Flurbiprofen, flurbiprofen]
[3]; 20 %
  Mean flux +/− std error of flurbiprofen: 0.81 +/− 0.05 microg/cm^2 · h

## Oc1ccc(O)cc1 [HQ, hydroquinone]
[2]; HQ 1% w/v control, no enhancer, 5 microL/cm^2
  Melanin content: 57.5 ± 3.7 μg/cm^2
[2]; HQ 2% w/v control, no enhancer, 5 microL/cm^2
  Melanin content: 36.8 ± 8.1 μg/cm^2
[7]; control gel, no enhancer, 15 mg/cm^2
  Flux of hydroquinone: 0.35 ± 0.10 % dose/h

## CC(C)Cc1ccc(C(C)C(=O)O)cc1 (centres unmarked) [Ibuprofen, ibuprofen]
[3]; 20 %
  Mean flux +/− std error of ibuprofen: 5.39 +/− 0.50 microg/cm^2 · h
[8]
  median amount of ibuprofen penetrated after 12 hours: 474 μg/cm^2
  median amount of ibuprofen penetrated after 24 hours: 1819 μg/cm^2

## C#C[C@]1(OC(C)=O)CC[C@H]2[C@@H]3CCC4=CC(=O)CC[C@@H]4[C@H]3CC[C@@]21C [Norethisterone acetate, norethisterone acetate]
[3]; 24 h, 6 % w/v
  Mean flux +/− std error of norethisterone acetate: 0.14 +/− 0.02 microg/cm^2 · h

## CCCCC(CC)COC(=O)c1ccc(N(C)C)cc1 (centres unmarked) [Octyl dimethyl PABA, Octyl dimethyl-para-aminobenzoate]
[1]; Children's python, 8 % v/v
  Mean flux +/− std error of oestradiol: 0.26 +/− 0.01 microg/cm^2 · h
  Enhancement ratio: 2.4
[2]; HQ 1% w/v with enhancer 2% v/v, finite dose solution 5 microL/cm^2
  Melanin content: 38.2 ± 3.1 μg/cm^2
[2]; HQ 1% w/v with enhancer 2% v/v versus HQ 1% w/v control
  Enhancement ratio (enhancer/control): 1.5
[3]; 8 % v/v
  Mean flux +/− std error of flurbiprofen: 2.91 +/− 0.30 microg/cm^2 · h
  Mean flux +/− std error of ibuprofen: 13.16 +/− 1.21 microg/cm^2 · h
  Mean flux +/− std error of norethisterone acetate: 1.85 +/− 0.07 microg/cm^2 · h
[3]; 24 h, 8 % v/v
  Mean flux +/− std error of progesterone: 0.95 +/− 0.03 microg/cm^2 · h
[4]
  median amount of ibuprofen penetrated after 12 hours: 1123* μg/cm^2
  median amount of ibuprofen penetrated after 24 hours: 2981* μg/cm^2
[9]; 1.6 % v/v
  Enhancement ratio: 1.2
  Mean flux +/− std error of indomethacin: 1.43 +/− 0.14 microg.cm^2.h
[9]; 3.2 % v/v
  Enhancement ratio: 1.4
  Mean flux +/− std error of indomethacin: 1.71 +/− 0.32 microg.cm^2.h
[9]; 6.4 % v/v
  Enhancement ratio: 1.6
  Mean flux +/− std error of indomethacin: 1.94 +/− 0.09 microg.cm^2.h
[5]
  Enhancement ratio: 3.5
[10]; [18]
  Enhancement ratio: 5.8
  Mean flux +/− std error of hydrocortisone: 0.79 +/− 0.06 microg/cm^2.h
[7]; both, guinea pig, 3 % v/v
  Enhancement ratio (enhancer/control): 2.9

## C[C@]12CC[C@@H]3c4ccc(O)cc4CC[C@H]3[C@@H]1CC[C@@H]2O [Oestradiol, oestradiol]
[1]; control without penetration enhancer, 2% w/v oestradiol
  Mean flux +/− std error of oestradiol: 0.06 +/− 0.01 microg/cm^2 · h

## CCCCC(CC)COC(=O)C=Cc1ccc(OC)cc1 (centres unmarked) [PARSOL ® MCX]
[7]; HQ gel 15 mg/cm^2 with enhancer (PARSOL MCX 3% v/v, ESCALOL 507 3% v/v, AZONE 5% v/v as in row)
  Flux of hydroquinone: 0.93 ± 0.19 % dose/h
[7]; hydroquinone flux from gel, guinea pig skin in vitro
  Enhancement ratio (enhancer/control): 2.7

## CC(=O)[C@H]1CC[C@H]2[C@@H]3CCC4=CC(=O)CC[C@]4(C)[C@H]3CC[C@]12C [Progesterone, progesterone]
[3]; 24 h, 6 % w/v
  Mean flux +/− std error of progesterone: 0.40 +/− 0.02 microg/cm^2 · h

## C[C@]12CCC(=O)C=C1CC[C@@H]1[C@@H]2[C@@H](O)C[C@@]2(C)[C@H]1CC[C@]2(O)C(=O)CO [hydrocortisone]
[10]; control, no enhancer, 1% w/v hydrocortisone in 70% aqueous ethanol
  Mean flux +/− std error of hydrocortisone: 0.14 +/− 0.04 microg/cm^2.h

## CC(C(=O)O)c1cccc(C(=O)c2ccccc2)c1 (centres unmarked) [ketoprofen]
[11]
  Mean flux +/− std error of ketoprofen: 0.47 ± 0.04 microg/cm^2.h
[12]
  Mean flux +/− std error of ketoprofen: 0.96 ± 0.18 microg/cm^2.h
[13]
  Mean flux +/− std error of ketoprofen: 0.78 ± 0.07 microg/cm^2.h

## C[C@]12CC[C@H]3[C@@H](CCC4=CC(=O)CC[C@@]43C)[C@@H]1CC[C@@H]2O [testosterone]
[14]
  permeability in human skin compared with pig skin, fold lower: 2.2 fold
[15]
  mean amount of testosterone penetrated after 4 hours: 4 ± 1 μg/cm^2
  mean amount of testosterone penetrated after 24 hours: 13 ± 2 μg/cm^2
[16]
  Mean flux +/− std error of testosterone: 0.70 +/− 0.03 microg/cm^2.h
[17]
  clearance: 11.1 mL/min/kg
